Laboratory results: ChEMBL document CHEMBL1817620, “Synthesis and cytotoxicity of 2-phenylquinazolin-4(3H)-one derivatives” (Eur J Med Chem, 2011)
pIC50: −log10 of the molar value. The source made the active and inactive calls. The calls are words filed in the database; no cut-off is given here.

Assays:
HL-60 = assay: Cytotoxicity against human HL60 cells after 4 days by MTT assay; type: functional, cell-based; conditions: HL-60, 96 h
HCT-29 = assay: Cytotoxicity against human HCT29 cells after 4 days by MTT assay; type: functional, cell-based; conditions: HCT-29, 96 h
HeLa [1] = assay: Cytotoxicity against human HeLa cells after 4 days by MTT assay; type: functional, cell-based; conditions: 96 h
DU-145 = assay: Cytotoxicity against human DU145 cells after 4 days by MTT assay; type: functional, cell-based; conditions: DU-145, 96 h
MDA-MB-231 = assay: Cytotoxicity against human MDA-MB-231 cells after 4 days by MTT assay; type: functional, cell-based; conditions: MDA-MB-231, 96 h
HeLa [2] = assay: Cell cycle arrest in human HeLa cells assessed as fold increase in G1 phase at 10 umol after 36 hrs using propidium iodide staining by flow cytometry relative to control; type: functional
HeLa [3] = assay: Cell cycle arrest in human HeLa cells assessed as enhanced ratio of cell death at 10 umol after 72 hrs using propidium iodide staining by flow cytometry relative to control; type: functional
[4] = target: Poly [ADP-ribose] polymerase 1 (Homo sapiens) (UniProt P09874); assay: Inhibition of PARP1
Sequence of Poly [ADP-ribose] polymerase 1 (Homo sapiens) (P09874 whole entry): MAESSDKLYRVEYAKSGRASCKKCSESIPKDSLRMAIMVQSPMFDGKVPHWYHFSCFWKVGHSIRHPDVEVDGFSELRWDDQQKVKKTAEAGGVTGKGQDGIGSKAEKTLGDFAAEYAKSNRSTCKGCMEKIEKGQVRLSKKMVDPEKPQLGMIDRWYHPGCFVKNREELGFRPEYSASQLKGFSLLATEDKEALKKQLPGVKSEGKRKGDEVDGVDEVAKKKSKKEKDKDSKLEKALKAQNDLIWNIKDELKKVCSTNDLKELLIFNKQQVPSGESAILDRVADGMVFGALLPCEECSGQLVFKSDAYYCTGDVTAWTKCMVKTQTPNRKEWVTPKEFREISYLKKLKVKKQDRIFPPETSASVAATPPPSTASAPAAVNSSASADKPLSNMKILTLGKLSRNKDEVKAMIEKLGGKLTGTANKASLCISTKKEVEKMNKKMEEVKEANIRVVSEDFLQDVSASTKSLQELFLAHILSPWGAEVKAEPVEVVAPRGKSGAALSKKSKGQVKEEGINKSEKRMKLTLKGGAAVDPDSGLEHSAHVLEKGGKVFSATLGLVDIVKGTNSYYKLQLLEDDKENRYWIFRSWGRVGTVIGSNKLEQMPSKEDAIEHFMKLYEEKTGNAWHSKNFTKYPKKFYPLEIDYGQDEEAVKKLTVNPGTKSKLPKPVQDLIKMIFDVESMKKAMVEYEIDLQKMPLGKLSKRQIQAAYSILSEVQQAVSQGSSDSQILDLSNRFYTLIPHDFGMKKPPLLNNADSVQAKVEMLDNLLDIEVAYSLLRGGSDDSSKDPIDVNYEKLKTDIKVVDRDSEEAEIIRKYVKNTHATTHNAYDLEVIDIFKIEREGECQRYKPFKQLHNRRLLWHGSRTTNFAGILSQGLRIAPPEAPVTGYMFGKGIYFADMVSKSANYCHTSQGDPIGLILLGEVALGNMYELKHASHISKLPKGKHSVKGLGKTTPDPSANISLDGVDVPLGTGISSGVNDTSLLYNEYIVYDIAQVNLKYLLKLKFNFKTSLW

Compound	pIC50 (HL-60)	pIC50 (HCT-29)	pIC50 (HeLa [1])	pIC50 (DU-145)	pIC50 (MDA-MB-231)	fold change (FC) (HeLa [2])	Ratio (HeLa [3])	inhibition [4]
CCCCS(=O)(=O)N1CCN(C(=O)c2ccc(-c3nc4ccccc4c(=O)[nH]3)cc2)CC1	4.83	4.99	4.76	4.75	5.92			
O=C(c1ccc(-c2nc3ccccc3c(=O)[nH]2)cc1)N1CCN(S(=O)(=O)Cc2ccc(Cl)cc2)CC1	< 4.30	4.90	5.36	4.57	< 4.30	1.2	8.74	
CC(C)(C)OC(=O)N1CCN(C(=O)c2ccc(-c3nc4ccccc4c(=O)n3Cc3ccccc3)cc2)CC1	5.54	< 4.30	4.67	< 4.30	4.39			
COc1ccc(Cn2c(-c3ccc(C(=O)N4CCN(S(=O)(=O)c5ccccc5)CC4)cc3)nc3ccccc3c2=O)cc1	5.59	5.07	5.54	5.60	5.38	1.19	6.83	
Cc1ccc(CS(=O)(=O)N2CCN(C(=O)c3ccc(-c4nc5ccccc5c(=O)[nH]4)cc3)CC2)cc1	4.78	4.71	5.05	4.53	5.11			
O=C(c1ccc(-c2nc3ccccc3c(=O)[nH]2)cc1)N1CCN(S(=O)(=O)c2ccccc2)CC1	4.84	4.90	5.05	5.15	4.49			
O=C(c1ccc(-c2nc3ccccc3c(=O)[nH]2)cc1)N1CCN(S(=O)(=O)c2cccc3ccccc23)CC1	5.15	4.94	4.93	5.00	4.65			
O=C(c1ccc(-c2nc3ccccc3c(=O)[nH]2)cc1)N1CCN(S(=O)(=O)c2ccc([N+](=O)[O-])cc2)CC1	5.70	5.59	4.70	4.60	4.90			inactive
Cn1c(-c2ccc(C(=O)N3CCN(C(=O)OC(C)(C)C)CC3)cc2)nc2ccccc2c1=O	5.02	4.55	4.81	4.76	4.60			
O=C(O)c1ccc(-c2nc3ccccc3c(=O)[nH]2)cc1	4.93	4.51	< 4.30	4.55	< 4.30			
O=C(c1ccc(-c2nc3ccccc3c(=O)[nH]2)cc1)N1CCN(S(=O)(=O)c2ccc(F)cc2)CC1	4.96	4.95	4.45	4.46	4.56			
O=C(c1ccc(-c2nc3ccccc3c(=O)n2Cc2ccccc2)cc1)N1CCN(S(=O)(=O)c2ccccc2)CC1	5.38	4.63	4.70	4.82	4.71			
O=C(c1ccc(-c2nc3ccccc3c(=O)[nH]2)cc1)N1CCN(S(=O)(=O)c2cccs2)CC1	5.66	4.80	< 4.30	4.67	5.03			
COc1ccc(S(=O)(=O)N2CCN(C(=O)c3ccc(-c4nc5ccccc5c(=O)[nH]4)cc3)CC2)cc1	5.12	4.67	< 4.30	4.57	5.29			
CC(C)S(=O)(=O)N1CCN(C(=O)c2ccc(-c3nc4ccccc4c(=O)[nH]3)cc2)CC1	5.12	< 4.30	4.96	4.76	5.24			
O=C(c1ccc(-c2nc3ccccc3c(=O)[nH]2)cc1)N1CCN(S(=O)(=O)c2ccccc2C(F)(F)F)CC1	4.85	< 4.30	5.08	4.61	5.26			
Cc1ccc(S(=O)(=O)N2CCN(C(=O)c3ccc(-c4nc5ccccc5c(=O)[nH]4)cc3)CC2)cc1	5.08	4.98	4.63	4.74	4.36			

Compound	pIC50 (HL-60)	pIC50 (HCT-29)	pIC50 (HeLa [1])	pIC50 (DU-145)	pIC50 (MDA-MB-231)	fold change (FC) (HeLa [2])	Ratio (HeLa [3])	inhibition [4]
COc1ccc(S(=O)(=O)N2CCN(C(=O)c3ccc(-c4nc5ccccc5c(=O)n4C)cc3)CC2)cc1	5.23	4.59	4.63	4.67	< 4.30			
COc1ccc(Cn2c(-c3ccc(C(=O)N4CCN(S(=O)(=O)c5ccc(OC)cc5)CC4)cc3)nc3ccccc3c2=O)cc1	5.42	5.24	4.78	5.24	5.00	1.18	7.29	
O=C(c1ccc(-c2nc3ccccc3c(=O)[nH]2)cc1)N1CCN(S(=O)(=O)Cc2ccccc2)CC1	4.73	5.64	5.04	5.11	4.80	1.21	7.04	inactive
CS(=O)(=O)N1CCN(C(=O)c2ccc(-c3nc4ccccc4c(=O)[nH]3)cc2)CC1	4.94	< 4.30	< 4.30	4.70	5.19			
O=C(c1ccc(-c2nc3ccccc3c(=O)[nH]2)cc1)N1CCN(S(=O)(=O)c2cccc3cccnc23)CC1	4.84	< 4.30	4.95	4.81	5.20			
COc1cccc2c1C(=O)c1c(O)c3c(c(O)c1C2=O)C[C@@](O)(C(=O)CO)C[C@@H]3O[C@H]1C[C@H](N)[C@H](O)[C@H](C)O1 [DOXORUBICIN]	6.10	5.60	5.43	5.72				
O=C(c1ccc(-c2nc3ccccc3c(=O)[nH]2)cc1)N1CCN(S(=O)(=O)c2ccc(Cl)cc2)CC1	4.87	< 4.30	4.74	< 4.30	< 4.30			
O=C(c1ccc(-c2nc3ccccc3c(=O)[nH]2)cc1)N1CCN(S(=O)(=O)C2CCCC2)CC1	4.95	4.89	4.95	5.32	4.83	1.2	5.96	
Cn1c(-c2ccc(C(=O)N3CCN(S(=O)(=O)c4ccccc4)CC3)cc2)nc2ccccc2c1=O	5.23	4.88	4.85	4.98	5.04			
O=C(c1ccc(-c2nc3ccccc3c(=O)[nH]2)cc1)N1CCN(S(=O)(=O)c2ccc(C(F)(F)F)cc2)CC1	5.19	4.67	4.87	4.83	4.50			
CC(C)c1ccc(S(=O)(=O)N2CCN(C(=O)c3ccc(-c4nc5ccccc5c(=O)[nH]4)cc3)CC2)cc1	5.59	5.05	4.76	4.79	5.03			
O=C(c1ccc(-c2nc3ccccc3c(=O)[nH]2)cc1)N1CCN(S(=O)(=O)C2CC2)CC1	4.97	< 4.30	< 4.30	5.22	5.09			
O=C(c1ccc(-c2nc3ccccc3c(=O)[nH]2)cc1)N1CCN(S(=O)(=O)c2ccc3ccccc3c2)CC1	4.58	4.78	4.88	4.56	< 4.30			
COc1ccc(S(=O)(=O)N2CCN(C(=O)c3ccc(-c4nc5ccccc5c(=O)n4Cc4ccccc4)cc3)CC2)cc1	5.21	4.65	4.47	4.80	4.32			
O=C(c1ccc(-c2nc3ccccc3c(=O)[nH]2)cc1)N1CCN(S(=O)(=O)c2cccc(C(F)(F)F)c2)CC1	4.63	5.02	5.03	4.85	< 4.30			
CC(C)(C)OC(=O)N1CCN(C(=O)c2ccc(-c3nc4ccccc4c(=O)[nH]3)cc2)CC1	4.81	4.68	4.68	< 4.30	5.07			
O=C(c1ccc(-c2nc3ccccc3c(=O)[nH]2)cc1)N1CCNCC1	4.78	< 4.30	< 4.30	4.61	< 4.30			
